Key:
[1] = Cytotoxicity against human WI38 cells by MTT assay; format: cell-based, WI-38; details: Homo sapiens, WI-38; read-out: IC50
[2] = tested on: Trypanosoma brucei brucei; assay: Antitrypanosomal activity against Trypanosoma brucei brucei Lister 427 bloodstream forms by microtiter plate based assay; format: functional, organism-based
[3] = tested on: Trypanosoma brucei brucei; assay: Potency index, ratio of IC50 for QND to IC50 for test compound against Trypanosoma brucei brucei Lister 427 bloodstream forms by microtiter plate based assay; format: functional
[4] = tested on: Plasmodium falciparum; assay: Antiplasmodial activity against Plasmodium falciparum 3D7 assessed as reduction in parasite viability by parasite lactate dehydrogenase assay; format: functional, organism-based
[5] = Selectivity index, ratio of IC50 against human WI38 cells to IC50 for Plasmodium falciparum 3D7; format: toxicity, cell-based, WI-38; details: read-out: Ratio IC50
[6] = tested on: Plasmodium falciparum; assay: Potency index, ratio of IC50 for QND to IC50 for test compound against Plasmodium falciparum 3D7 by parasite lactate dehydrogenase assay; format: functional
[7] = in vitro; details: human, WI38 cells
Description: Selectivity index, ratio of IC50 against human WI38 cells to IC50 for Trypanosoma brucei brucei Lister 427 bloodstream forms

[8] = tested on: Trypanosoma brucei brucei; assay: Potency index, ratio of IC50 for CN to IC50 for test compound against Trypanosoma brucei brucei Lister 427 bloodstream forms by microtiter plate based assay; format: functional
[9] = tested on: Plasmodium falciparum; assay: Potency index, ratio of IC50 for CN to IC50 for test compound against Plasmodium falciparum 3D7 by parasite lactate dehydrogenase assay; format: functional
[10] = tested on: Trypanosoma brucei brucei; assay: Potency index, ratio of IC50 for QN to IC50 for test compound against Trypanosoma brucei brucei Lister 427 bloodstream forms by microtiter plate based assay; format: functional
[11] = tested on: Plasmodium falciparum; assay: Potency index, ratio of IC50 for QN to IC50 for test compound against Plasmodium falciparum 3D7 by parasite lactate dehydrogenase assay; format: functional

For `C=C[C@H]1CN2CC[C@H]1C[C@@H]2[C@@H](O)c1cc(CC[C@@H](C)[C@H]2CC[C@H]3[C@@H]4CC[C@@H]5C[C@H](O)CC[C@]5(C)[C@H]4C[C@H](O)[C@]23C)nc2ccc(OC)cc12`, the IC50 [1] was 4300 nM, the IC50 [2] was 610 nM and the “Ratio IC50” value [3] was 42.7. The IC50 [4] was 281 nM, the selectivity ratio [5] was 15 and the “Ratio IC50” value [6] was 0.7. The selectivity ratio [7] was 7.1.
With `C=C[C@H]1CN2CC[C@H]1C[C@@H]2[C@@H](O)c1cc(CC[C@@H](C)[C@H]2CC[C@H]3[C@@H]4[C@H](O)[C@H](O)[C@@H]5C[C@H](O)CC[C@]5(C)[C@H]4CC[C@]23C)nc2ccccc12` the IC50 [1] was 5680 nM, the IC50 [2] was 1810 nM and the “Ratio IC50” value [8] was 37.6. The IC50 [4] was 183 nM, the selectivity ratio [5] was 31 and the “Ratio IC50” value [9] was 1.6. It also gave a selectivity ratio [7] of 3.1.
In the case of `C=C[C@H]1CN2CC[C@H]1C[C@@H]2[C@@H](O)c1cc(CC[C@@H](C)[C@H]2CC[C@H]3[C@@H]4C[C@H](OC(C)=O)[C@@H]5C[C@H](OC(C)=O)CC[C@]5(C)[C@H]4CC[C@]23C)nc2ccc(OC)cc12`, the IC50 [1] is reported as 4490 nM, the IC50 [2] is reported as 1470 nM and the “Ratio IC50” value [3] is reported as 17.7. For the same compound, the IC50 [4] was 155 nM, the selectivity ratio [5] was 29 and the “Ratio IC50” value [6] was 1.3. For the same compound, the selectivity ratio [7] was 3.1.
In the case of `C=C[C@H]1CN2CC[C@H]1C[C@@H]2[C@@H](O)c1cc(CC[C@@H](C)[C@H]2CC[C@H]3[C@@H]4CC[C@@H]5C[C@H](OC(C)=O)CC[C@]5(C)[C@H]4C[C@H](OC(C)=O)[C@]23C)nc2ccc(OC)cc12`, the IC50 [1] is reported as 5330 nM, the IC50 [2] is reported as 690 nM and the “Ratio IC50” value [3] is reported as 37.5. For the same compound, the IC50 [4] was 195 nM, the selectivity ratio [5] was 27 and the “Ratio IC50” value [6] was 1. The selectivity ratio [7] was 7.7.
In the case of `C=C[C@H]1CN2CC[C@H]1C[C@@H]2[C@@H](O)c1cc(CC[C@@H](C)[C@H]2CC[C@H]3[C@@H]4[C@H](O)C[C@@H]5C[C@H](O)CC[C@]5(C)[C@H]4C[C@H](O)[C@]23C)nc2ccc(OC)cc12`, the IC50 [1] is reported as 11800 nM, the IC50 [2] is reported as 1210 nM and the “Ratio IC50” value [3] is reported as 21.6. For the same compound, the IC50 [4] was 700 nM, the selectivity ratio [5] was 17 and the “Ratio IC50” value [6] was 0.3. For the same compound, the selectivity ratio [7] was 9.8.
With `C=C[C@H]1CN2CC[C@H]1C[C@@H]2[C@@H](O)c1cc(CC[C@@H](C)[C@H]2CC[C@H]3[C@@H]4[C@H](OC(C)=O)[C@H](OC(C)=O)[C@@H]5C[C@H](OC(C)=O)CC[C@]5(C)[C@H]4CC[C@]23C)nc2ccc(OC)cc12` the IC50 [1] was 3290 nM, the IC50 [2] was 560 nM and the “Ratio IC50” value [3] was 46.2. For the same compound, the IC50 [4] was 73.2 nM, the selectivity ratio [5] was 45 and the “Ratio IC50” value [6] was 2.7. For the same compound, the selectivity ratio [7] was 5.8.
With `C=C[C@H]1CN2CC[C@H]1C[C@@H]2[C@@H](O)c1cc(CC[C@@H](C)[C@H]2CC[C@H]3[C@@H]4[C@H](O)C[C@@H]5C[C@H](O)CC[C@]5(C)[C@H]4C[C@H](O)[C@]23C)nc2ccccc12` the IC50 [1] was 5680 nM, the IC50 [2] was 1100 nM and the “Ratio IC50” value [8] was 61.8. For the same compound, the IC50 [4] was 592 nM, the selectivity ratio [5] was 10 and the “Ratio IC50” value [9] was 0.5. The selectivity ratio [7] was 5.2.
With `C=C[C@H]1CN2CC[C@H]1C[C@@H]2[C@@H](O)c1cc(CC[C@@H](C)[C@H]2CC[C@H]3[C@@H]4C[C@H](OC(C)=O)[C@@H]5C[C@H](OC(C)=O)CC[C@]5(C)[C@H]4CC[C@]23C)nc2ccccc12` the IC50 [1] was 4280 nM, the IC50 [2] was 640 nM and the “Ratio IC50” value [8] was 105.7. The IC50 [4] was 186 nM, the selectivity ratio [5] was 23 and the “Ratio IC50” value [9] was 1.6. For the same compound, the selectivity ratio [7] was 6.6.
In the case of `C=C[C@H]1CN2CC[C@H]1C[C@@H]2[C@@H](O)c1cc(CC[C@@H](C)[C@H]2CC[C@H]3[C@@H]4[C@H](O)[C@H](O)[C@@H]5C[C@H](O)CC[C@]5(C)[C@H]4CC[C@]23C)nc2ccc(OC)cc12`, the IC50 [1] is reported as 4750 nM, the IC50 [2] is reported as 770 nM and the “Ratio IC50” value [3] is reported as 33.9. The IC50 [4] was 170 nM, the selectivity ratio [5] was 27.9 and the “Ratio IC50” value [6] was 1.1. The selectivity ratio [7] was 6.2.
With `C=C[C@H]1CN2CC[C@H]1C[C@@H]2[C@@H](O)c1cc(CC[C@@H](C)[C@H]2CC[C@H]3[C@@H]4[C@H](OC(C)=O)[C@H](OC(C)=O)[C@@H]5C[C@H](OC(C)=O)CC[C@]5(C)[C@H]4CC[C@]23C)nc2ccccc12` the IC50 [1] was 4170 nM, the IC50 [2] was 510 nM and the “Ratio IC50” value [8] was 134.6. For the same compound, the IC50 [4] was 40.8 nM, the selectivity ratio [5] was 102 and the “Ratio IC50” value [9] was 7.2. For the same compound, the selectivity ratio [7] was 8.3.
With `C=C[C@H]1CN2CC[C@H]1C[C@@H]2[C@@H](O)c1cc(CC[C@@H](C)[C@H]2CC[C@H]3[C@@H]4[C@H](OC(C)=O)C[C@@H]5C[C@H](OC(C)=O)CC[C@]5(C)[C@H]4C[C@H](OC(C)=O)[C@]23C)nc2ccccc12` the IC50 [1] was 5100 nM, the IC50 [2] was 550 nM and the “Ratio IC50” value [8] was 123.6. For the same compound, the IC50 [4] was 52.8 nM, the selectivity ratio [5] was 97 and the “Ratio IC50” value [9] was 5.5. For the same compound, the selectivity ratio [7] was 9.3.
With `C=C[C@H]1CN2CC[C@H]1C[C@@H]2[C@@H](O)c1cc(CC[C@@H](C)[C@H]2CC[C@H]3[C@@H]4[C@H](OC(C)=O)C[C@@H]5C[C@H](OC(C)=O)CC[C@]5(C)[C@H]4C[C@H](OC(C)=O)[C@]23C)nc2ccc(OC)cc12` the IC50 [1] was 4660 nM, the IC50 [2] was 530 nM and the “Ratio IC50” value [3] was 48.8. The IC50 [4] was 83.8 nM, the selectivity ratio [5] was 56 and the “Ratio IC50” value [6] was 2.3. The selectivity ratio [7] was 8.7.
For `C=C[C@H]1CN2CC[C@H]1C[C@@H]2[C@@H](O)c1cc(CC[C@@H](C)[C@H]2CC[C@H]3[C@@H]4CC[C@@H]5C[C@H](O)CC[C@]5(C)[C@H]4C[C@H](O)[C@]23C)nc2ccccc12`, the IC50 [1] was 2980 nM, the IC50 [2] was 600 nM and the “Ratio IC50” value [8] was 113.1. The IC50 [4] was 134 nM, the selectivity ratio [5] was 22 and the “Ratio IC50” value [9] was 2.2. The selectivity ratio [7] was 5.
With `C=C[C@H]1CN2CC[C@H]1C[C@H]2[C@H](O)c1cc(CC[C@@H](C)[C@H]2CC[C@H]3[C@@H]4[C@H](O)[C@H](O)[C@@H]5C[C@H](O)CC[C@]5(C)[C@H]4CC[C@]23C)nc2ccc(OC)cc12` the IC50 [1] was 5550 nM, the IC50 [2] was 760 nM and the “Ratio IC50” value [10] was 27.8. For the same compound, the IC50 [4] was 275 nM, the selectivity ratio [5] was 20 and the “Ratio IC50” value [11] was 2.3. The selectivity ratio [7] was 7.3.
For `C=C[C@H]1CN2CC[C@H]1C[C@@H]2[C@@H](O)c1cc(CC[C@@H](C)[C@H]2CC[C@H]3[C@@H]4C[C@H](O)[C@@H]5C[C@H](O)CC[C@]5(C)[C@H]4CC[C@]23C)nc2ccc(OC)cc12`, the IC50 [1] was 2200 nM, the IC50 [2] was 890 nM and the “Ratio IC50” value [3] was 29.2. For the same compound, the IC50 [4] was 124 nM, the selectivity ratio [5] was 18 and the “Ratio IC50” value [6] was 1.6. The selectivity ratio [7] was 2.5.

— ChEMBL document CHEMBL3588788, “Structure-activity relationship of hybrids of Cinchona alkaloids and bile acids with in vitro antiplasmodial and antitrypanosomal activities” (Eur J Med Chem, 2015)
